Assays:
[1] = system: C4-2 tumors; assay: Survival analysis of mice with pre-established C4-2 tumors; type: in vivo; settings: for animals surviving at 14 days of treatment: control group 37.5%
Procedure: (§1) Male athymic nude Mice (Foxn1 nu/nu) (Harlan, Grannat, France) were used at the age of 7 weeks (weight 25-30 g). All procedures were performed in compliance with the European Convention for the Protection of Vertebrate Animals Used for Experimentation (animal house agreement # B-34-172-27, authorization for animal experimentation #34.324). Experiments were done at least twice for each tested condition. Animals were sacrificed before they became compromised. Xenografts were established by subcutaneously injecting 2×10^6 LNCaP cells, 2×10^6 C4-2 cells or 5×10^5 MEFs SV40 in 100 μl of a Matrigel solution. For curative experiments, tumors were allowed to growth until they were measurable with a caliper. In each group, the mice were randomized and given SCD-1 inhibitor at 80 mg/kg in 100 μl of a labrafil-DMA-tween^80 solution (89:10:1) (treated group) or vehicle alone (control group), by daily intra-peritoneal (i.p.) injection 5 days of week. For preventive experiments, the mice were treated daily for 7 days before the day of xenograft. Tumor volume measurements were taken twice to three times a week and calculated according to the formula: length×width×height×0.5236. Data are expressed as the mean tumor volume or as fold of the start point tumor volume. For survival analysis, animals bearing pre-established C4-2 tumors were treated with BZ36 at 80 mg/kg or 160 mg/kg or with vehicle by daily i.p. injection 5 days of week. All mice were monitored for survival until tumor volume had reached 2000 mm^3 or until death. Analysis of survival was conducted by a log-rank test based on the Kaplan-Meier method. At euthanasia, tumors were excised and fixed in 4% formalin for immunohistological analyses.

[2] = system: ras SV40 MEFs tumors; assay: ras SV40 MEFs xenograft, curative and preventive; type: in vivo, mice
Procedure: as §1
Immunohistochemical analysis of SCD-1 expression was performed using high-density Tissue Microarray (TMA) slide (Accumax array) with 39 prostate adenocarcinoma spots from different patients (Gleason scores from 5 to 9) with corresponding normal tissues. […] Sections were mounted in mowiol and analysed rapidly.

[3] = Toxicity in nude mice after daily i.p. injection; type: in vivo
Procedure: as §1, with “For survival analysis, animals bearing pre-established C4-2 tumors were treated with BZ36 at 80 mg/kg or 160 mg/kg or with vehicle by daily i.p. injection 5 days of week.” left out, “Analysis of survival was conducted by a log-rank test based on the Kaplan-Meier method. At euthanasia, tumors were excised and fixed in 4% formalin for immunohistological analyses.” left out

[4] = system: C4-2 cells; assay: Human WNT Signaling Pathway PCR Array; type: cell-based; settings: C4-2, 25 μM
Procedure: C4-2 cells treated with the compound tested at 25 μM were analysed for the expression profiles of 84 genes related to Wnt-mediated signal transduction by using Human WNT Signaling Pathway PCR Array according to the manufacturers' recommendations (Tebu-Bio, Le Perray en Yvelines, France). The relative content of cDNA samples was normalized with the endogenous β2M, HPRT1, RPL13 and GAPDH reference genes, and the relative mRNA level was calculated according to the formula 2^−(ΔCt). Values are expressed as the fold change in relative mRNA level following treatment of cells with the tested compound at 25 μM, as compared to control.

[5] = system: LNCaP tumor xenografts; assay: Subcutaneous xenograft, curative treatment; type: in vivo, mice
Procedure: as §1
(§2) Immunohistochemical analysis of SCD-1 expression was performed using high-density Tissue Microarray (TMA) slide (Accumax array) with 39 prostate adenocarcinoma spots from different patients (Gleason scores from 5 to 9) with corresponding normal tissues. Immunohistochemical analysis of pcna expression was performed on […] paraffin-embedded sections of LNCaP, C4-2 of Ras SV40 MEFs tumor xenografts. Briefly, after antigen retrieval, deparaffinized sections were blocked of Fc receptors with PBS containing 5% goat serum and then incubated with corresponding anti-SCD-1 mouse antibody, 1:50 (Abcam, Paris, France) or anti-pcna mouse antibody, 1:50 (Santa Cruz) in PBS-Tween 0.1%, overnight at 4° C. […] Sections were counterstained with Mayer's hematoxylin. […] Sections were mounted in mowiol and analysed rapidly.

[6] = system: C4-2 tumor xenografts; assay: Subcutaneous xenograft, curative treatment; type: in vivo, mice
Procedure: as §1, §2

[7] = system: LNCaP cells; assay: Phospho-kinase array and immunoblot; type: cell-based, human
Procedure: (§3) Protein extracts and sodium dodecyl sulfate (SDS)-polyacrylamide gel electrophoresis (PAGE), electrotransfer and immunoblotting were performed as previously described (34). The primary antibodies rabbit anti-AMPK, rabbit anti-phospho AMPK (Thr172), rabbit anti-Akt and rabbit anti-phospho Akt were purchased from Cell signalling Technology (Ozyme, Saint Quentin Yvelines, France). The primary antibody mouse anti-tubulineα was purchased from Lab Vision (Thermo Fisher Scientific, Microm France, Francheville, France). The primary antibodies rabbit anti-p44/p42 MAPK, rabbit anti-phospho p44/p42 MAPK (Thr202/Tyr204), mouse anti-GSK3α/β, and rabbit anti-phospho GSK3α/β were kindly provided by Dr Gilles Freiss. LNCaP and C4-2 cells treated with the tested compound at 25 μM were analyzed for the relative phosphorylation of 46 kinase phosphorylation sites using human phospho-kinase array kit (Proteome Profiler™) according to the manufacturers' recommendations (R&D systems Europe, Lille, France).

[8] = system: C4-2 cells; assay: Phospho-kinase array and immunoblot; type: cell-based, human
Procedure: as §3

[9] = system: MEFs transformed by HaRasV12 and SV40 Large T; assay: Proliferation of MEFs; type: cell-based, mouse
Procedure: (§4) Primary MEFs were obtained from embryos at embryonic day 13.5 by standard methods.
(§5) Monolayer cell cultures were grown in Dulbecco's Modified Eagle's Medium (DMEM) supplemented with 25 mM glucose and 10% FCS.
(§6) At 24 h, 48 h, 72 h and 96 h following addition of increasing concentrations of the tested compound in DMSO or DMSO alone, cells were trypsinized, pelleted by centrifugation at 1200 rpm for 5 min, resuspended in 500 μl of culture medium and counted in an hemocytometer.

[10] = system: normal MEFs (WT); assay: Proliferation of MEFs; type: cell-based, mouse; settings: slowly growing normal MEFs (WT)
Procedure: as §4, §5, §6

[11] = system: p53−/− MEFs transformed by HaRasV12; assay: Proliferation of MEFs; type: cell-based, mouse; settings: p53−/− MEFs fully transformed by HaRasV12
Procedure: as §4, §5, §6

Structure (SMILES): COc1ccc(Br)c(C(=O)N2CCN(c3ccc(C(=O)NCCCc4ccccc4)cn3)CC2)c1 [BZ36]
- animal survival in comparison to vehicle control ([1]; 80 mg/kg or 160 mg/kg, p=0.038): significant and dose-dependant prolongation
- animals surviving at 14 days of treatment ([1]; 80 mg/kg): 75%
- median survival ([1]; 80 mg/kg, control group 14 days): 21 days
- animals surviving at 28 days of treatment ([1]; 160 mg/kg, control group 12.5%): 75%
- animals surviving at 14 days of treatment ([1]; 160 mg/kg): 100%
- ras SV40 MEFs tumors growth ([2]; curative, from day 2, maintained along 12 days, vs vehicle): significantly prevented
- mice with tumors five days after cells were grafted ([2]; pre-treatment one week prior to graft, almost all vehicle treated mice developed tumors): 50%
- decrease of proliferative tumor cells (PCNA immunostaining) ([2]; ras SV40 MEFs xenografts, vs vehicle-treated mice): 61%
- histological examination of liver and skin [3]: absence of toxicity
- weight loss or other toxicity [3]: no significant weight loss or other toxicity
- expression of genes in the β-cat pathway (frizzled family, cyclin D1, D2, D3, myc, c-jun, Wnt family members) [4]: decreased expression
- tumor volume and tumor growth rate ([5]; LNCaP xenograft, 80 mg/kg i.p., vs vehicle): significantly reduced
- decrease of proliferative tumor cells (PCNA immunostaining) ([5]; LNCaP xenografts, 80 mg/kg, vs control animals): 50%
- mice with tumor volume increased more than 4-fold ([5]; LNCaP, 80 mg/kg, 42% of vehicle-treated mice): 18%
- xenografted mice with tumor regression ([5]; LNCaP, 80 mg/kg, no regression in control mice): 27%
- mice with tumor volume increased more than 4-fold ([6]; C4-2, 80 mg/kg, 42% of vehicle-treated mice): 12%
- xenografted mice with tumor regression ([6]; C4-2, 80 mg/kg, no regression in control mice): 19%
- tumor volume and tumor growth rate ([6]; C4-2 xenograft, 80 mg/kg i.p., vs vehicle): significantly reduced
- decrease of proliferative tumor cells (PCNA immunostaining) ([6]; C4-2 xenografts, 80 mg/kg, vs control animals): 41%
- phosphorylation of GSK3a/13 [7]: abrogated
- phosphorylation of AMPKcc ([7]; 25 μM): increased
- Akt phosphorylation (5473/T308) ([7]; 25 μM, vs non-treated cells): decrease
- phosphorylation of ERK1/2 ([7]; immunoblot): decreased phosphorylation
- phosphorylation of GSK3a/13 ([8]; C4-2): abrogated
- phosphorylation of AMPKcc ([8]; C4-2, 25 μM): increased
- Akt phosphorylation (5473/T308) ([8]; C4-2, 25 μM, vs non-treated cells): decrease
- phosphorylation of ERK1/2 ([8]; C4-2, immunoblot): decreased phosphorylation
- phosphorylation of MEK1/2 (S218/5222, S222/S226) ([8]; C4-2, vs control cells): Significant decreases
- proliferation index [9]: strongly decreased
- proliferation index [10]: only moderately reduced
- proliferation [11]: efficiently blocked
